Experimental data taken from patent US10464977B2 (University of Maryland, Baltimore, priority 2016, dated 2019).
Residues, ends and D or L forms follow the SMILES beside them.

Tests used:
Sap2 = Sap2 (Candida albicans, UniProt P0DJ06); assay: in vitro; details: 2 h, 37° C.; for degradation by Sap2 (in words): 6.25 μg mL^−1 Sap2, 150 μg mL^−1 peptide
Procedure: (§1) Experiments were done in 1 mM NaPB. The mixtures were incubated at 37° C. for 2 h, and NaPB with no Sap was used as a control. After the incubation, the samples were mixed with tricine sample buffer (without Coomassie Blue G-250, except in control samples) containing β-mercaptoethanol and boiled for 5 min at 100° C. to inactivate the proteases. The degraded and non-degraded peptides were separated by gel electrophoresis in 10-20% Tris-tricine gels (Bio-Rad), and the gels were then fixed in a 10% acetic acid/40% methanol/50% water mixture for 30 min. The fixed gels were stained with Bio-Safe Coomassie stain (Bio-Rad) for 1 h and washed with fresh water three times, once overnight and then twice for at least 2 h each time. The gels were imaged on a Chemidoc imager (Bio-Rad), and densitometric analysis was done with Image Lab software (Bio-Rad). […] Three replicates of the assay were done.
(§2) To measure the antifungal activity of the peptides following degradation by the Saps, the antifungal activity assay was performed as described above, except the peptides were first exposed to Saps. The peptide fragments were prepared by incubating each peptide (150 μg mL^−1) with 6.25 μg mL^−1 Sap9 or 18 μg mL^−1 Sap2 for 2 h at 37° C. The enzymes were then inactivated by heating at 100° C. for 5 min. As controls, each peptide was also incubated with only NaPB buffer. Samples were then stored at −20° C. until use in the antifungal activity assay.
(§3) The intact peptide was then separated from the degradation products using gel electrophoresis and quantified the level of degradation using densitometric analysis of Coomassie-stained gels.
(§4) To amplify differences in antifungal activity due to degradation by the Saps, the concentrations of the Saps was increased by at least two-fold compared to the concentrations used for the gel electrophoresis data in FIGS. 1A-1D (to 6.25 μg mL^−1 for Sap9 and 18 μg mL^−1 for Sap2).

Sap9 = Sap9 (Candida albicans, UniProt Q59SU1); assay: in vitro; details: 2 h, 37° C.; for degradation by Sap9 (in words): 3.13 μg mL^−1 Sap9, 150 μg mL^−1 peptide; for degradation at higher Sap9 concentration (in words): 6.25 μg mL^−1 Sap9, 150 μg mL^−1 peptide
Procedure: as §1, §2, §3, §4

[1] = system: C. albicans cells (ATCC 90028); assay: Degradation of peptides by whole C. albicans cells, gel densitometry; format: in vitro ADME; details: 1×10^9 cells mL^−1, 150 μg mL^−1 peptide, 2 h, 37° C., 100 mM NaPB
Procedure: For degradation with C. albicans, a single colony of the ATCC 90028 strain (American Type Culture Collection) was used to inoculate YPD. The culture was grown overnight, subcultured, and grown to an optical density of 1-1.2 at OD600. All incubations were done at 30° C. The cells were washed three times in 100 mM NaPB and diluted to 2×10^9 cells mL^−1. Equal volumes of cells and peptides were mixed and incubated for 2 h at 37° C. The cells were removed by centrifugation, and the supernatants were mixed with tricine sample buffer and boiled for 10 min. The samples were then run on gels and analyzed as described above for degradation by the Saps. Three biological replicates were performed.
After observing the effect of residue modifications on the cleavage of Hst-5 by the purified recombinant Saps, whether incubation of the peptides with whole C. albicans cells expressing Saps (rather than Saps produced recombinantly) would yield similar results was evaluated. Hst-5 and the synthetic peptides were incubated with C. albicans cells for 2 h at 37° C. in 100 mM NaPB. The high ionic strength of this buffer prevents internalization of the peptides by C. albicans (4) allowing analysis of degradation of the peptides without the confounding effects of peptide internalization, which would reduce the amount of peptide in the reaction buffer.

Sequence of Sap2 (P0DJ06 57-398): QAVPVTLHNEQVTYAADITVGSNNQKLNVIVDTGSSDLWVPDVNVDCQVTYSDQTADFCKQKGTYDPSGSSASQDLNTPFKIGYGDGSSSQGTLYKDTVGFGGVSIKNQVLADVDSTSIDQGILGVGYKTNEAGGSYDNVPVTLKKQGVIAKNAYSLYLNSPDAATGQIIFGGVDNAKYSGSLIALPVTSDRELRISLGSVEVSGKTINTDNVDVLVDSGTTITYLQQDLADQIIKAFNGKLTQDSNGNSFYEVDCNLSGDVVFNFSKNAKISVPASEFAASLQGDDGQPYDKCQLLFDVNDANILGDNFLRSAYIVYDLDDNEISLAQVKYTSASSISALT
Sequence of Sap9 (Q59SU1 18-520): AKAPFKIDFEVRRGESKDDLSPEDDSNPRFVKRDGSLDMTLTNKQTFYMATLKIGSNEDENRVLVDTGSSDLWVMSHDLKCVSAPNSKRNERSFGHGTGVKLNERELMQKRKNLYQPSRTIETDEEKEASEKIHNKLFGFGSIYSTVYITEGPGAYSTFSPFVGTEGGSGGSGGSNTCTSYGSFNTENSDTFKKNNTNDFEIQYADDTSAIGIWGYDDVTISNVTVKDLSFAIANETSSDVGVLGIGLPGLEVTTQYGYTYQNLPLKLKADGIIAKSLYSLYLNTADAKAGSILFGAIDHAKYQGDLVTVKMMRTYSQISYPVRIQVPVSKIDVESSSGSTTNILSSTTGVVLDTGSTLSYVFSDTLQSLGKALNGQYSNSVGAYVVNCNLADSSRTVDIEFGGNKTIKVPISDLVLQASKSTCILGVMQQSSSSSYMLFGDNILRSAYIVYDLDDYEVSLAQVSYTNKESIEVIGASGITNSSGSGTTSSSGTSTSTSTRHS

SMILES	degradation by Sap2 (in words) (Sap2)	degradation by Sap9 (in words) (Sap9)	intact peptide at higher Sap2 concentration (in words) (Sap2; 18 μg mL^−1 Sap2, 150 μg mL^−1 peptide)	degradation by C. albicans cells (in words) [1]	degradation at higher Sap9 concentration (in words) (Sap9)
CC(C)C[C@H](NC(=O)[C@H](Cc1c[nH]cn1)NC(=O)[C@H](Cc1ccccc1)NC(=O)[C@H](CCCCN)NC(=O)[C@H](CCCNC(=N)N)NC(=O)[C@H](CCCCN)NC(=O)[C@H](Cc1ccc(O)cc1)NC(=O)CNC(=O)[C@H](Cc1c[nH]cn1)NC(=O)[C@H](Cc1c[nH]cn1)NC(=O)[C@H](CCCNC(=N)N)NC(=O)[C@H](CCCCN)NC(=O)[C@H](C)NC(=O)[C@H](Cc1c[nH]cn1)NC(=O)[C@H](CO)NC(=O)[C@@H](N)CC(=O)O)C(=O)N[C@@H](CCCCN)C(=O)N[C@@H](Cc1c[nH]cn1)C(=O)N[C@@H](Cc1c[nH]cn1)C(=O)N[C@@H](CO)C(=O)N[C@@H](Cc1c[nH]cn1)C(=O)N[C@@H](CCCNC(=N)N)C(=O)NCC(=O)N[C@@H](Cc1ccc(O)cc1)C(=O)O [Peptide E16L] (H-DSHAKRHHGYKRKFHLKHHSHRGY-OH; N-terminus and C-terminus assumed)	increased compared to Hst-5	increased compared to Hst-5			
C[C@H](NC(=O)[C@H](Cc1c[nH]cn1)NC(=O)[C@H](CO)NC(=O)[C@@H](N)CC(=O)O)C(=O)N[C@@H](CCCNC(=N)N)C(=O)N[C@@H](CCCNC(=N)N)C(=O)N[C@@H](Cc1c[nH]cn1)C(=O)N[C@@H](Cc1c[nH]cn1)C(=O)NCC(=O)N[C@@H](Cc1ccc(O)cc1)C(=O)N[C@@H](CCCCN)C(=O)N[C@@H](CCCNC(=N)N)C(=O)N[C@@H](CCCCN)C(=O)N[C@@H](Cc1ccccc1)C(=O)N[C@@H](Cc1c[nH]cn1)C(=O)N[C@@H](CCC(=O)O)C(=O)N[C@@H](CCCCN)C(=O)N[C@@H](Cc1c[nH]cn1)C(=O)N[C@@H](Cc1c[nH]cn1)C(=O)N[C@@H](CO)C(=O)N[C@@H](Cc1c[nH]cn1)C(=O)N[C@@H](CCCNC(=N)N)C(=O)NCC(=O)N[C@@H](Cc1ccc(O)cc1)C(=O)O [Peptide K5R] (H-DSHARRHHGYKRKFHEKHHSHRGY-OH; N-terminus and C-terminus assumed)			no statistically significant amount of these peptides remained	no significant effect	
CC(C)C[C@H](NC(=O)[C@H](Cc1ccc(O)cc1)NC(=O)CNC(=O)[C@H](Cc1c[nH]cn1)NC(=O)[C@H](Cc1c[nH]cn1)NC(=O)[C@H](CCCNC(=N)N)NC(=O)[C@H](CCCCN)NC(=O)[C@H](C)NC(=O)[C@H](Cc1c[nH]cn1)NC(=O)[C@H](CO)NC(=O)[C@@H](N)CC(=O)O)C(=O)N[C@@H](CCCNC(=N)N)C(=O)N[C@@H](CCCCN)C(=O)N[C@@H](Cc1ccccc1)C(=O)N[C@@H](Cc1c[nH]cn1)C(=O)N[C@@H](CCC(=O)O)C(=O)N[C@@H](CCCCN)C(=O)N[C@@H](Cc1c[nH]cn1)C(=O)N[C@@H](Cc1c[nH]cn1)C(=O)N[C@@H](CO)C(=O)N[C@@H](Cc1c[nH]cn1)C(=O)N[C@@H](CCCNC(=N)N)C(=O)NCC(=O)N[C@@H](Cc1ccc(O)cc1)C(=O)O [Peptide K11L] (H-DSHAKRHHGYLRKFHEKHHSHRGY-OH; N-terminus and C-terminus assumed)		greater degradation than their arginine-substituted counterparts or parent Hst-5			not intact
C[C@H](NC(=O)[C@H](Cc1c[nH]cn1)NC(=O)[C@H](CO)NC(=O)[C@@H](N)CC(=O)O)C(=O)N[C@@H](CCCCN)C(=O)N[C@@H](CCCNC(=N)N)C(=O)N[C@@H](Cc1c[nH]cn1)C(=O)N[C@@H](Cc1c[nH]cn1)C(=O)NCC(=O)N[C@@H](Cc1ccc(O)cc1)C(=O)N[C@@H](CCCNC(=N)N)C(=O)N[C@@H](CCCNC(=N)N)C(=O)N[C@@H](CCCCN)C(=O)N[C@@H](Cc1ccccc1)C(=O)N[C@@H](Cc1c[nH]cn1)C(=O)N[C@@H](CCC(=O)O)C(=O)N[C@@H](CCCNC(=N)N)C(=O)N[C@@H](Cc1c[nH]cn1)C(=O)N[C@@H](Cc1c[nH]cn1)C(=O)N[C@@H](CO)C(=O)N[C@@H](Cc1c[nH]cn1)C(=O)N[C@@H](CCCNC(=N)N)C(=O)NCC(=O)N[C@@H](Cc1ccc(O)cc1)C(=O)O [Peptide K11R-K17R] (H-DSHAKRHHGYRRKFHERHHSHRGY-OH; N-terminus and C-terminus assumed)	no observable degradation	no observable degradation			
CC(C)C[C@H](NC(=O)[C@H](C)NC(=O)[C@H](Cc1c[nH]cn1)NC(=O)[C@H](CO)NC(=O)[C@@H](N)CC(=O)O)C(=O)N[C@@H](CCCNC(=N)N)C(=O)N[C@@H](Cc1c[nH]cn1)C(=O)N[C@@H](Cc1c[nH]cn1)C(=O)NCC(=O)N[C@@H](Cc1ccc(O)cc1)C(=O)N[C@@H](CCCCN)C(=O)N[C@@H](CCCNC(=N)N)C(=O)N[C@@H](CCCCN)C(=O)N[C@@H](Cc1ccccc1)C(=O)N[C@@H](Cc1c[nH]cn1)C(=O)N[C@@H](CCC(=O)O)C(=O)N[C@@H](CCCCN)C(=O)N[C@@H](Cc1c[nH]cn1)C(=O)N[C@@H](Cc1c[nH]cn1)C(=O)N[C@@H](CO)C(=O)N[C@@H](Cc1c[nH]cn1)C(=O)N[C@@H](CCCNC(=N)N)C(=O)NCC(=O)N[C@@H](Cc1ccc(O)cc1)C(=O)O [Peptide K5L] (H-DSHALRHHGYKRKFHEKHHSHRGY-OH; N-terminus and C-terminus assumed)		greater degradation than their arginine-substituted counterparts or parent Hst-5		decrease in proteolysis	not intact
C[C@H](NC(=O)[C@H](Cc1c[nH]cn1)NC(=O)[C@H](CO)NC(=O)[C@@H](N)CC(=O)O)C(=O)N[C@@H](CCCCN)C(=O)N[C@@H](CCCNC(=N)N)C(=O)N[C@@H](Cc1c[nH]cn1)C(=O)N[C@@H](Cc1c[nH]cn1)C(=O)NCC(=O)N[C@@H](Cc1ccc(O)cc1)C(=O)N[C@@H](CCCNC(=N)N)C(=O)N[C@@H](CCCNC(=N)N)C(=O)N[C@@H](CCCCN)C(=O)N[C@@H](Cc1ccccc1)C(=O)N[C@@H](Cc1c[nH]cn1)C(=O)N[C@@H](CCC(=O)O)C(=O)N[C@@H](CCCCN)C(=O)N[C@@H](Cc1c[nH]cn1)C(=O)N[C@@H](Cc1c[nH]cn1)C(=O)N[C@@H](CO)C(=O)N[C@@H](Cc1c[nH]cn1)C(=O)N[C@@H](CCCNC(=N)N)C(=O)NCC(=O)N[C@@H](Cc1ccc(O)cc1)C(=O)O [Peptide K11R] (H-DSHAKRHHGYRRKFHEKHHSHRGY-OH; N-terminus and C-terminus assumed)		did not show a significant increase in resistance to the protease		did not show a significant difference in degradation of the peptide compared to Hst-5	significant reduction in degradation compared to Hst-5
